The results in this text go back to patent US11786507B2, “Methods of treating HIV-associated neurological disorders (HAND)” (priority 2020, dated 2023).

Structures are written as SMILES. Entries after “also recorded” stand apart in the source; their conditions may differ.

Type in all cases: in vivo, mouse
Experiment [1] concerns microglia in CORT of Wt and iTat mice. The experiment is described as follows: Iba-1 immunohistochemistry (DAB), microglia morphology in CORT. Conditions: PAM-treated iTat mice. The procedure: Mice were anesthetized using avertin (tribromoethanol) and transcardially perfused with first phosphate-buffered saline (PBS) and then 4% paraformaldehyde (PFA). Then, the brains were dissected out, fixed in 4% PFA at 4° C. overnight, dehydrated in 30% sucrose, embedded in OCT, sagittally sectioned (20 μm) using a cryostat, and preserved in a cryoprotectant containing 30% ethylene glycol, 30% glycerol, and 40% PBS. For staining, floating sections were permeabilized in 0.1% triton X-100 in PBS (PBST), blocked by 1% BSA in PBST, probed by Iba-1 antibody (Wako, catalog #019-19741, and 1:800 dilution), inactivated endogenous peroxidases in 1% hydrogen peroxide, probed again by a goat anti-rabbit secondary antibody (Southern Biotech, catalog #4030-05, and 1:200 dilution), and developed using a DAB kit (Abeam, catalog #ab103723). All images were taken using a Nikon Eclipse E800 microscope with a 20× objective and analyzed by the Cellprofiler program. Every section was averaged from three brain regions prefrontal, occipital and parietal cortex, and the average of the three sections was used to represent individual animals.
To further determine the relationship between microglia activation, Tat neurotoxicity, and PAM/α7 nAChR, immunohistochemistry staining was performed on microglia in CORT of Wt and iTat mice treated with and without PAM (FIG. 1). […]

In experiment [2] the test system is iTat mice. Description: Morris Water Maze (MWZ), training stage and probe test. Conditions: mouse, in vivo. From the text: (§1) Doxycycline (Dox)-inducible and astrocyte-specific HIV-1 Tat-transgenic mice (iTat) were generated as previously described.^38 Wild-type (Wt, C57BL/6) and α7 nAChR knockout mice (α7^−/−, B6.129S7-Chrna^7tm1Ba/J) were purchased from the Jackson Laboratory (Bar Harbor, ME). All the animal procedures were approved by the Institutional Animal Care and Use Committee. Mice were housed with a 12-hour light and 12-hour dark photoperiod and provided water and food ad libitum. α7^−/− iTat mice were generated by cross breeding iTat mice with α7^−/− mice. α7^−/− genotyping was slightly modified with the JumpStart™ Taq DNA Polymerase-based PCR (JumpStart™ Taq DNA Polymerase, Sigma, catalog #D9307). […] Mice of 10-14 weeks old with body weights of 20-35 grams were fed with Dox-containing diet (0.625 g/kg, Envigo, catalog #TD.01306) as stated.
Open Field Test (OPT) and Morris Water Maze (MWZ) were performed sequentially using a computerized video tracking system (Anymaze, Stoelting) to determine the spontaneous locomotor activity and spatial learning and memory, respectively. For OPT, each mouse was allowed to move freely around a clear acrylic chamber (40.5×40.5×30.5 cm) for 10 minutes. Travel distance and maximum speed was determined by the AnyMaze software. For MWZ, a circle pool (1.2 m diameter) surrounded with a curtain was divided into four equal quadrants, and four signs with different shape were fixed onto the middle of each quadrant wall above the opaque water (24±1° C.). A hidden platform (1.5 cm below water surface) was put into a certain quadrant. Two stages consisting of 5-day training and probe test were carried out. In the training stage, four trials with a 15-20 minute interval were conducted in the every-day training, and for each trial mice were allowed to freely seek the platform within 90 seconds right after they were randomly put into one quadrant facing to the pool wall. If the mice found the platform within 90 seconds, 10 seconds would be added to allow them staying on the platform for memorizing, however, if failed, they would be directed toward the platform and allowed to stay on it for 15 seconds. Mice that were immobile or floating and unable to find the platform during the training stages were excluded from the experiments. Probe test was carried out on the next day following the 5-day training stage with a 60 seconds trial, and the platform was removed to prevent the mice from climbing onto it during the testing. One day after the behavioral tests, mice were euthanized and the brains were harvested.
To determine if α7 nAChR is involved in HAND, iTat mice were fed with Dox-containing food pellets for 7 days, […], and then subjected to open field test (OPT) for locomotor activity on day 14, and Morris Water Maze test (MWZ) for learning and spatial memory on day 15-20, and euthanized to harvest tissues on day 21 (FIG. 1A). Dox-containing food pellet feeding and PAM injection continued during the next 7 days of behavioral tests. To minimize the effects of injection on behavioral tests, PAM was injected 5 hours after each behavioral test.

Experiment [3] deals with iTat mice. The experiment is described as follows: Western blotting of SYP, PSD-95, GFAP, Iba-1 in cortex and hippocampus.
From the text: as §1
A RIPA buffer (50 mM Tris.HCl, pH 8.0, 280 mM NaCl, 0.5% NP-40, 1% C24H39NaO4, 0.2 mM EDTA, 2 mM EGTA and 10% glycerol) supplemented with protease inhibitors (Millipore-Sigma, catalog #S8830) and phosphatase inhibitors (Millipore-Sigma, catalog #4906845001) was used to lyse the brain tissues and cultured cells with brief sonication on ice. Protein concentrations of the lysates were determined using a Bio-Rad DC protein assay kit (Bio-Rad, catalog #5000111). Lysates were denatured in the SDS-PAGE loading buffer at 100° C. for 10 min, then electrophoretically separated by 8-15% SDS-PAGE, blotted onto 0.45 μm polyvinylidene fluoride membrane (GE Healthcare Life Sciences, catalog #10600023), and probed using appropriate antibodies against PSD-95 (Abcam, catalog #ab18258, and 1:2000 dilution), SYP (Abcam, catalog #ab8049, and 1:1000 dilution), Iba-1 (Wako, catalog #016-20001, and 1:500 dilution) and GFAP (DAKO, catalog #z330s, and 1:2000 dilution), p-p38 (Santa Cruz, catalog #sc-166182, and 1:1000 dilution), p38 (Santa cruz, catalog #sc-535, and 1:1000 dilution), p-JNK (Santa cruz, catalog #sc-6254, and 1:1000 dilution), JNK (Santa cruz, catalog #sc-571, and 1:1000 dilution), p-ERK (Santa cruz, catalog #sc-7383, and 1:1000 dilution), and ERK (Santa cruz, catalog #sc-514302, and 1:1000 dilution), α7 nAChR (Alomone, catalog #ANC-007, and 1:1000 dilution) and β-actin (Sigma-Aldrich, catalog #A1978, and 1:2000 dilution). A Bio-Rad ChemicDoc imaging system (Bio-Rad) and Image J were used for image capturing and analysis, respectively. […]
Background: Immunoblotting shows a protein as a band on a membrane.

Setting [4] is: CORT, PAM 15 mg/kg/day s.c. vs DMSO.

Consider `COc1cc(OC)c(NC(=O)Nc2cc(C)on2)cc1Cl` [PAM, 1-(5-chloro-2,4-dimethoxy-phenyl)-3-(5-methyl-isoxazol-3-yl)-urea], for which the “Number of microglia branches and endpoints” value in experiment [1] is “fewer branches and endpoints than PAM-treated Wt mice and DMSO-treated iTat mice”. Further, in the experiment with iTat mice [2], the “MWZ probe test latency to platform” value is “decreases of latency to platform in both male iTat and Wt mice”; the “MWZ probe test platform entries, time at platform, distance to platform” value is recorded as “no differences”; the “MWZ probe test time at target quadrant and distance to target quadrant” value is “reversed by PAM treatment with the differences in distance to target quadrant”; the “MWZ training stage cumulative travel distance” value was “differences of cumulative travel times in male iTat mice on day 4 and female iTat mice on day 2”. Further, in the experiment on iTat mice [2], the “MWZ training stage escape latency and cumulative distance” value is recorded as “only some improvements on male Wt mice”; the “MWZ training stage escape latency time” value was “differences of escape latency time in male iTat mice on day 4 and 5 and female iTat mice on day 2 and 4”. For the same compound, in the experiment with iTat mice [3] (setting [4]), the GFAP expression entry is “completely reversed the increases; also recorded: decreased GFAP in iTat mice”; the Iba-1 expression entry is “decreased Iba-1 in both Wt and iTat mice”; the PSD-95 expression result was “significant increases of PSD-95 in Wt mice and even more in iTat mice”; the SYP expression result was “no changes”. For the same compound, in the experiment with iTat mice [3] (HIP, DMSO- vs PAM-treated mice), the “SYP and GFAP expression” value is “no differences of SYP and GFAP”. Further, the PSD-95 expression result with iTat mice [3] (HIP, PAM 15 mg/kg/day s.c. vs DMSO) is “increased PSD-95 in both Wt and iTat mice”.
